The numbers were not newly measured in US9272011B2, “Pharmaceutical composition for treating urinary incontinence and enuresis” (LABORATEC, S.L., priority 2012, dated 2016), which cites them from elsewhere.

The data set deals with enuresis. Particulars: enuresis therapy, literature studies.

As for `CN(C)CCCN1c2ccccc2CCc2ccccc21` [Imipramine], the response rate result was “approximately 50%”.
